Consider five compounds from publication PMC9181938, “Fluorinated Analogues of Lepidilines A and C: Synthesis and Screening of Their Anticancer and Antiviral Activity” (Molecules, 2022).

Data set [1] deals with LLC-MK2 cells. Put plainly: Cytotoxicity MTT assay (0.1–1000 µM), CC50. Format: cell-based, Macaca mulatta. In general terms: Tetrazolium dyes change colour on reduction, which living cells bring about.
The test system of data set [2] is Vero cells. Put plainly: Cytotoxicity screening at 10 µM (MTT). The data set is classed as cell-based, Cercopithecus aethiops. The note with it: 48 h.
Data set [3] concerns LLC-MK2 cells. The data set can be described thus: Cytotoxicity screening at 10 µM (MTT). The data set is classed as cell-based, Macaca mulatta. The note with it: 48 h.
Data set [4] deals with NCTC clone 929 cells. Put plainly: Cytotoxicity screening at 10 µM (MTT). The data set is classed as cell-based, Mus musculus. As to conditions: 48 h.
Data set [5] concerns MRC-5 cells. Put plainly: Cytotoxicity screening at 10 µM (MTT). The data set is classed as cell-based, Human. As to conditions: 48 h.
The test system of data set [6] is HeLa cells. Put plainly: Cytotoxicity screening at 10 µM (MTT). The data set is classed as cell-based, Human. The note with it: 48 h.
Data set [7] has as its system Human parainfluenza virus type 3 (HPIV-3). The data set can be described thus: Antiviral activity assay (0.1–1000 µM), IC50. The data set is classed as cell-based. The method in brief: (§1)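 Confluent cell monolayers were infected (AdV5 and EMCV MOI 0.005, HPIV-3 MOI 0.01, 1-h adsorption; HCMV 20 PFU/well, 2-h adsorption), then incubated at 37 °C with compounds (0.1–1000 µM) in 2% FBS MEM until CPE appeared. Infection was read by MTT or, for HCMV, plaque counting. IC50 was the concentration halving plaques versus untreated infected controls.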

Data set [8] relates to Encephalomyocarditis virus (EMCV). Put plainly: Antiviral screening at 10 µM. The data set is classed as cell-based. The note with it: EMCV-infected cells. In a few lines: (§2)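 Infected Vero, LLC-MK2, NCTC 929 or HeLa cell monolayers (MOI 0.005; HPIV-3 MOI 0.01) were treated after 1-h adsorption with compounds at 10 µM (0.1% DMSO). Cultures were incubated at 37 °C until cytopathic effect was visible. Viral infection was scored by MTT assay (OD 550/670 nm), in triplicate.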

Data set [9] relates to Human adenovirus 5 (AdV5). The data set can be described thus: Antiviral screening at 10 µM. The data set is classed as cell-based. The note with it: AdV5-infected cells. In a few lines:
as §2

Data set [10] relates to Human herpesvirus 1 (HSV-1). The data set can be described thus: Antiviral screening at 10 µM. Format: cell-based. As to conditions: antiviral screening, HSV-1-infected cells. The method in brief: as §2
Data set [11] deals with Human parainfluenza virus type 3 (HPIV-3). The data set can be described thus: Antiviral screening at 10 µM. The data set is classed as cell-based. As to conditions: antiviral screening, HPIV-3-infected cells. The method in brief:
as §2

Data set [12] relates to Vero cells. Put plainly: Cytotoxicity MTT assay (0.1–1000 µM), CC50. The data set is classed as cell-based, Cercopithecus aethiops. The note with it: 48 h; for CC50: read-out: CC50 Normal Cell Lines Vero.
In data set [13] the test system is NCTC clone 929 cells. The data set can be described thus: Cytotoxicity MTT assay (0.1–1000 µM), CC50. The data set is classed as cell-based, Mus musculus. As to conditions: NCTC clone 929, MTT, 48 h; read-out: CC50 Normal Cell Lines NCTC Clone 929.
Data set [14] concerns MRC-5 cells. Put plainly: Cytotoxicity MTT assay (0.1–1000 µM), CC50. Format: cell-based, Human. The note with it: MRC-5, MTT, 48 h; read-out: CC50 Normal Cell Lines MRC-5.
The test system of data set [15] is HeLa cells. Put plainly: Cytotoxicity MTT assay (0.1–1000 µM), CC50. The data set is classed as cell-based, Human. As to conditions: MTT, 48 h, read-out: CC50 Cancer Cell Lines HeLa.
For data set [16], the system named is A549 cells. Put plainly: Cytotoxicity MTT assay (0.1–1000 µM), CC50. The data set is classed as cell-based, Human. As to conditions: 48 h, read-out: CC50 Cancer Cell Lines A549.
Data set [17] has as its system HepG2 cells. The data set can be described thus: Cytotoxicity MTT assay (0.1–1000 µM), CC50. Format: cell-based, Human. As to conditions: 48 h, read-out: CC50 Cancer Cell Lines HepG2.
Data set [18] in a line: Cytotoxicity MTT assay (0.1–1000 µM), CC50. As to conditions: Mus musculus, NCTC clone 929 cells, NCTC clone 929, MTT, 48 h; read-out: CC50 Normal Cell Lines NCTC Clone 929. The data set is classed as cell-based, Mus musculus.
Data set [19] can be described thus: Cytotoxicity MTT assay (0.1–1000 µM), CC50. Format: cell-based, Human. As to conditions: human, A549 cells, read-out: CC50 Cancer Cell Lines A549.
Data set [20] can be described thus: Cytotoxicity MTT assay (0.1–1000 µM), CC50. The data set is classed as cell-based, Human. The note with it: human, HepG2 cells, read-out: CC50 Cancer Cell Lines HepG2.
Data set [21] has as its system Human herpesvirus 5 (HCMV). Put plainly: Antiviral activity assay (0.1–1000 µM), IC50, plaque reduction. Format: cell-based. The note with it: Human betaherpesvirus 5, 20 PFU/well. In a few lines: as §1
Data set [22] relates to Encephalomyocarditis virus (EMCV). Put plainly: Antiviral activity assay (0.1–1000 µM), IC50. The data set is classed as cell-based. As to conditions: Cardiovirus A, MOI 0.005, read-out: IC50 EMCV. In a few lines: as §1
Data set [23] relates to Human adenovirus 5 (AdV5). The data set can be described thus: Antiviral activity assay (0.1–1000 µM), IC50. Format: cell-based. As to conditions: Human mastadenovirus C; AdV5, MOI 0.005; read-out: IC50 AdV5. The method in brief: as §1
Data set [24] concerns Human herpesvirus 1 (HSV-1). The data set can be described thus: Antiviral activity assay (0.1–1000 µM), IC50. Format: cell-based. The note with it: Human alphaherpesvirus 1; HSV-1, MOI 0.005.
Data set [25] is described as follows: Cytotoxicity MTT assay (0.1–1000 µM), CC50. The data set is classed as cell-based, Cercopithecus aethiops. The note with it: Cercopithecus aethiops, Vero cells, read-out: CC50 Normal Cell Lines Vero.
The nature of data set [26]: Cytotoxicity MTT assay (0.1–1000 µM), CC50. As to conditions: Macaca mulatta, LLC-MK2 cells, LLC-MK2, MTT, 48 h; read-out: CC50 Normal Cell Lines LLC-MK2. Format: cell-based, Macaca mulatta.
Data set [27] can be described thus: Cytotoxicity MTT assay (0.1–1000 µM), CC50. Format: cell-based, Human. As to conditions: human, MRC-5 cells, MRC-5, MTT, read-out: CC50 Normal Cell Lines MRC-5.
A short description of data set [28]: Cytotoxicity MTT assay (0.1–1000 µM), CC50. Format: cell-based, Human. The note with it: human, HeLa cells, MTT, 48 h, read-out: CC50 Cancer Cell Lines HeLa.
Setting [29] is: LLC-MK2, MTT, 48 h, read-out: CC50 Normal Cell Lines LLC-MK2.
[30] abbreviates: Table S2, range 0.1-1000 µM, LLC-MK2, read-out: Cell line (CC50 M) LLC-MK2.
Setting [31] is: Table S4, range 0.1-1000 µM, HPIV-3, read-out: IC50 (M) HPIV-3.
Setting [32] is: Human respirovirus 3, HPIV-3, MOI 0.01, read-out: IC50 HPIV-3.

Where two headings read alike, the source gives them in different places. Some results are limits rather than exact numbers.

For orientation: CC50 means the concentration giving 50% cytotoxicity. A word on the IC50: it is the midpoint of a concentration-inhibition curve. In general, melting point refers to the temperature, or range, at which the solid turns liquid.

On to `Cc1c(C)[n+](Cc2ccccc2)cn1Cc1ccccc1` [1a[PF6]], for which the half-maximal cytotoxic concentration (CC50) in [1] (setting [29]) is less than 80 µM; in [1] (setting [30]), 32.7 ± 6.81 µM. Also, the “Cell line (viability %) Vero” value in data set [2] was found to be 89.0%. Also, the “Cell line (viability %) LLC-MK2” value in data set [3] worked out at 90.3%. The “Cell line (viability %) NCTC clone 929” value in data set [4] was 56.2%. In addition, the “Cell line (viability %) MRC-5” value in [5] came to 78.6%. Further, in data set [6], the “Cell line (viability %) HeLa” value came to 23.4%. Further, the half-inhibitory concentration (IC50) in data set [7] (setting [31]) was more than 3.27e-05 M. Besides, the “Cell line (viability %) EMCV” value in data set [8] is 7.8%. Further, the “Cell line (viability %) AdV5” value in data set [9] is on record as 15.3%. In addition, in [10], the “Cell line (viability %) HSV-1” value was found to be 17.5%. The “Cell line (viability %) HPIV-3” value in [11] was 62.4%.

Take `COc1cccc(Cn2c[n+](Cc3ccccc3)c(C)c2C)c1` [1c[PF6]]: the CC50 is less than 80 µM in data set [1] (setting [29]) and 75.3 ± 5.51 µM in data set [1] (setting [30]). In data set [2], the “Cell line (viability %) Vero” value was 91.3%. In addition, in [3], the “Cell line (viability %) LLC-MK2” value came to 55.6%. Besides, the “Cell line (viability %) NCTC clone 929” value in [4] was 8.5%. Further, the “Cell line (viability %) MRC-5” value in [5] was determined as 76.9%. In addition, the “Cell line (viability %) HeLa” value in data set [6] came to 11.4%. Moreover, in data set [7] (setting [31]), the half-maximal inhibitory concentration (IC50) was more than 7.53e-05 M. Also, the “Cell line (viability %) EMCV” value in [8] was found to be 7.9%. The “Cell line (viability %) AdV5” value in data set [9] is 17.1%. Besides, in data set [10], the “Cell line (viability %) HSV-1” value came out at 23.3%. For the same compound, the “Cell line (viability %) HPIV-3” value in data set [11] was found to be 91.1%.

In the case of `Cc1c(C)[n+](Cc2cccc(F)c2)cn1Cc1ccccc1` [1e[PF6]] [1-Benzyl-3-(3-fluorobenzyl)-4,5-dimethylimidazolium hexafluorophosphate], the 50% cytotoxic concentration (CC50) in [12] turned out to be 56.3 ± 3.21 µM; in data set [1] (setting [29]), 150 ± 2.52 µM; in data set [13] it was 148 ± 11.5 µM; in data set [14], 150 ± 4.17 µM; in data set [15], 0.08 ± 0.001 µM; in data set [16], 38 ± 3.46 µM. Further, the half-maximal cytotoxic concentration (CC50) in [17] amounted to 317 ± 5.77 µM.

Compound `Cc1c(C)[n+](Cc2cccc(F)c2)cn1Cc1ccccc1.[Cl-]` [Compound 1e, 1-Benzyl-3-(3-fluorobenzyl)-4,5-dimethylimidazolium chloride] displayed a melting point of 190 to 192 °C. Also, in data set [12], the 50% cytotoxic concentration (CC50) came to 22.7 ± 1.53 µM. For the same compound, the CC50 in data set [1] (setting [29]) was found to be 53.5 ± 2.18 µM. Moreover, in [18], the CC50 at 48 h worked out at 79.2 ± 1.44 µM. For the same compound, the 50% cytotoxic concentration (CC50) in data set [14] came to 52.7 ± 0.577 µM. The 50% cytotoxic concentration (CC50) in data set [15] came out at 0.039 ± 0.001 µM. Moreover, the CC50 at 48 h in data set [19] turned out to be 37.7 ± 3.79 µM. Moreover, the half-maximal cytotoxic concentration (CC50) at 48 h in data set [20] was 423 ± 7.64 µM. The compound also gave an IC50 in [21] of more than 52.7 µM. Moreover, the IC50 in [22] is more than 79.2 µM. Also, in [23], the IC50 is more than 0.039 µM. Also, in data set [24], the IC50 was more than 22.7 µM. Also, in data set [7] (setting [32]), the IC50 is more than 5.35e-05 M.

The compound `Cc1c(C)[n+](Cc2cccc(C(F)(F)F)c2)cn1Cc1ccccc1.[Cl-]` [Compound 1g, 1-Benzyl-4,5-dimethyl-3-[3-(trifluoromethyl)benzyl]imidazolium chloride] had a melting point of 120 to 122 °C. In addition, the CC50 at 48 h in data set [25] was 0.107 ± 0.012 µM. In addition, in data set [12], the “CC50 Normal Cell Lines Vero” value is recorded as “toxic”. Further, the cytotoxic concentration (CC50) at 48 h in [26] amounted to 66.2 ± 2.25 µM. For the same compound, the cytotoxic concentration (CC50) at 48 h in data set [18] turned out to be 30 ± 2 µM. The half-maximal cytotoxic concentration (CC50) at 48 h in data set [27] was determined as 54.3 ± 1.16 µM. Moreover, the cytotoxic concentration (CC50) at 48 h in data set [28] came out at 0.053 ± 0.006 µM. Besides, the half-maximal cytotoxic concentration (CC50) at 48 h in [19] was determined as 10.3 ± 1.04 µM. Also, the cytotoxic concentration (CC50) at 48 h in data set [20] worked out at 130 ± 5 µM. In data set [21], this compound registered an IC50 of more than 54.3 µM. The IC50 in [22] was more than 30 µM. The IC50 in data set [23] is more than 0.053 µM. For the same compound, the IC50 in [24] was more than 0.107 µM. Moreover, the IC50 in data set [7] (setting [32]) is more than 6.62e-05 M.
